Source: patent publication US10863742B2, “Herbicide combinations” (Bayer CropScience Aktiengesellschaft, priority 2016, dated 2020)

Key:
Test in all cases: Greenhouse early post-emergence weed control trial
Assay type in all cases: in vivo
Lolium rigidum (LOLRI) = settings: 480 h, visual weed control 20 DAA, scale 0-100, early post-emergence BBCH 10-11, g ai/ha: diflufenican 50, pyroxasulfone 25, metribuzin 50, combination 50 + 25 + 50, read-out: % Efficacy against various weeds, LOLRI
Protocol: (§1) The following data are the results of a greenhouse investigation in which the herbicide combination according to the present invention was tested against various monocotyledonous and dicotyledonous weeds after an early-post emergence application (BBCH 10-11).
(§2) For this early post-emergent trial seeds of the above mentioned species were sown in 7 cm jiffy pots containing standard soil (14.7% sand, 19.9% clay, 65.4% silt and 1.8% organic matter) covered with 0,5 cm depth of sandy soil and lightly irrigated from above. The pots were placed in a glasshouse (with conditions of 16 hour day and 8 hour night, 21° C. day and 12° C. night and 60% relative humidity) and irrigated from above to allow the seeds to germinate and grow. Once they had reached the required growth stage BBCH 10-11 the propagated plants were treated with the herbicides. The herbicides were applied in a spray volume of 300 l water/ha using a flat fan nozzle XR 8001 at a pressure of 1.8 bar. After the application and air drying the pots were placed back into the glasshouse and allowed to grow on. The pots were irrigated via flood irrigation as required for good plant growth.
(§3) Visual percent of weed control (4 replicates) was rated 20 days after herbicide applications (DAA) on a scale of 0-100. A rating of 0 is defined as no control and 100 as complete control.
(§4) According to Colby synergistic effects of herbicidal active ingredients are indicated if the measured efficacy is higher than the expected one calculated according to his formula for 3-way mixtures: E=(A+B+C)−(A×B+A×C+B×C)/100+(A×B×C)/10000

Lamium purpureum (LAMPU) = settings: 480 h, visual weed control 20 DAA, scale 0-100, early post-emergence BBCH 10-11, g ai/ha: diflufenican 50, pyroxasulfone 25, metribuzin 50, combination 50 + 25 + 50, read-out: % Efficacy against various weeds, LAMPU
Protocol: as §1, §2, §3, §4

[1] = tested on: Polygonum convolvulus (POLCO); settings: Fallopia convolvulus, 480 h; visual weed control 20 DAA, scale 0-100, early post-emergence BBCH 10-11; g ai/ha: diflufenican 50, pyroxasulfone 25, metribuzin 50, combination 50 + 25 + 50; read-out: % Efficacy against various weeds, POLCO
Protocol: as §1, §2, §3, §4

Veronica persica (VERPE) = settings: 480 h, visual weed control 20 DAA, scale 0-100, early post-emergence BBCH 10-11, g ai/ha: diflufenican 50, pyroxasulfone 25, metribuzin 50, combination 50 + 25 + 50, read-out: % Efficacy against various weeds, VERPE
Protocol: as §1, §2, §3, §4

[2] = tested on: Pharbitis purpurea (PHBPU); settings: Ipomoea purpurea, 480 h; visual weed control 20 DAA, scale 0-100, early post-emergence BBCH 10-11; g ai/ha: diflufenican 50, pyroxasulfone 25, metribuzin 50, combination 50 + 25 + 50; read-out: % Efficacy against various weeds, PHBPU
Protocol: as §1, §2, §3, §4

[3] = tested on: Matricaria inodora (MATIN); settings: Tripleurospermum inodorum, 480 h; visual weed control 20 DAA, scale 0-100, early post-emergence BBCH 10-11; g ai/ha: diflufenican 50, pyroxasulfone 25, metribuzin 50, combination 50 + 25 + 50; read-out: % Efficacy against various weeds, MATIN
Protocol: as §1, §2, §3, §4

SMILES	Emax (Lolium rigidum (LOLRI))	Emax (Lamium purpureum (LAMPU))	Emax [1]	Emax (Veronica persica (VERPE))	Emax [2]	Emax [3]
O=C(Nc1ccc(F)cc1F)c1cccnc1Oc1cccc(C(F)(F)F)c1 [Diflufenican, diflufenican]	2%	10%	13%	18%	18%	1%
Cn1nc(C(F)(F)F)c(CS(=O)(=O)C2=NOC(C)(C)C2)c1OC(F)F [Pyroxasulfon, pyroxasulfone]	29%	5%	0%	5%	10%	5%
CSc1nnc(C(C)(C)C)c(=O)n1N [Metribuzin, metribuzin]	6%	95%	1%	70%	5%	59%
